Assay results as given in ChEMBL document CHEMBL1201861, “Genomics of Drug Sensitity in Cancer screening data, Wellcome Trust Sanger Institute”.

What was measured:
Assay in all cases: cells
COLO-792 = assay type: functional, cell-based, Homo sapiens; conditions: Homo sapiens, COLO-792
Description: SANGER: Inhibition of human COLO-792 cell growth in a cell viability assay.

COR-L23 = assay type: functional, cell-based, Homo sapiens; conditions: Homo sapiens, COR-L23;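 also: cell viability assay measuring how strongly compounds suppress growth of COR-L23 cells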
Description: SANGER: Inhibition of human COR-L23 cell growth in a cell viability assay.

Calu-6 = assay type: functional, cell-based, Homo sapiens; conditions: Homo sapiens, Calu-6;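 also: growth of human Calu-6 cells, read out by a cell viability assay, IC50 marking inhibition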
Description: SANGER: Inhibition of human Calu-6 cell growth in a cell viability assay.

DEL = assay type: functional, cell-based; conditions: Homo sapiens;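 also: growth inhibition of the human DEL cell line, read out with a cell viability assay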
Description: SANGER: Inhibition of human DEL cell growth in a cell viability assay.

DMS-79 = assay type: functional, cell-based; conditions: Homo sapiens;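 also: growth inhibition measured with a cell viability assay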
Description: SANGER: Inhibition of human DMS-79 cell growth in a cell viability assay.

ES6 = assay type: functional, cell-based, Homo sapiens; conditions: Homo sapiens, ES6;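 also: growth inhibition of human ES6 cells, read out with a cell viability assay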
Description: SANGER: Inhibition of human ES6 cell growth in a cell viability assay.

EW-11 = assay type: functional, cell-based, Homo sapiens; conditions: Homo sapiens, EW-11;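 also: growth inhibition of human EW-11 cells, measured with a cell viability assay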
Description: SANGER: Inhibition of human EW-11 cell growth in a cell viability assay.

HCC1937 = assay type: functional, cell-based, Homo sapiens; conditions: Homo sapiens, HCC1937;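 also: growth inhibition measured with a cell viability read-out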
Description: SANGER: Inhibition of human HCC1937 cell growth in a cell viability assay.

HD-MY-Z = assay type: functional, cell-based, Homo sapiens; conditions: Homo sapiens, HD-MY-Z;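 also: growth inhibition of HD-MY-Z cells, read out with a cell viability assay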
Description: SANGER: Inhibition of human HD-MY-Z cell growth in a cell viability assay.

HEL = assay type: functional, cell-based, Homo sapiens; conditions: Homo sapiens, HEL;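 also: growth inhibition of HEL cells, read out with a cell viability assay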
Description: SANGER: Inhibition of human HEL cell growth in a cell viability assay.

HMV-2 cell line = assay type: functional, cell-based, Homo sapiens; conditions: Homo sapiens, HMV-2;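 also: growth inhibition of HMV-II cells, read out with a cell viability assay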
Description: SANGER: Inhibition of human HMV-II cell growth in a cell viability assay.

Hs-578T = assay type: functional, cell-based, Homo sapiens; conditions: Homo sapiens, Hs-578T
Description: SANGER: Inhibition of human Hs-578-T cell growth in a cell viability assay.

HuO-3N1 = assay type: functional, cell-based, Homo sapiens; conditions: Homo sapiens, HuO-3N1;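 also: cell viability readout used to measure how strongly compounds suppress proliferation of human HuO-3N1 cells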
Description: SANGER: Inhibition of human HuO-3N1 cell growth in a cell viability assay.

K562 = assay type: functional, cell-based; conditions: Homo sapiens
Description: SANGER: Inhibition of human K-562 cell growth in a cell viability assay.

KARPAS-299 = assay type: functional, cell-based; conditions: Homo sapiens
Description: SANGER: Inhibition of human KARPAS-299 cell growth in a cell viability assay.

KP-N-YS = assay type: functional, cell-based; conditions: Homo sapiens;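 also: cell viability assay measuring inhibition of cell line growth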
Description: SANGER: Inhibition of human KP-N-YS cell growth in a cell viability assay.

LB2241-RCC = assay type: functional, cell-based, Homo sapiens; conditions: Homo sapiens, LB2241-RCC;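 also: cell viability assay measuring how strongly the cultured human renal carcinoma line is prevented from growing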
Description: SANGER: Inhibition of human LB2241-RCC cell growth in a cell viability assay.

LOX IMVI = assay type: functional, cell-based; conditions: Homo sapiens
Description: SANGER: Inhibition of human LOXIMVI cell growth in a cell viability assay.

LU-99A = assay type: functional, cell-based, Homo sapiens; conditions: Homo sapiens, LU-99A;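 also: growth inhibition of LU-99A cells, read out with a cell viability assay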
Description: SANGER: Inhibition of human LU-99A cell growth in a cell viability assay.

LXF-289 cell line = assay type: functional, cell-based, Homo sapiens; conditions: Homo sapiens, LXF-289
Description: SANGER: Inhibition of human LXF-289 cell growth in a cell viability assay.

MCF7 = assay type: functional, cell-based, Homo sapiens; conditions: Homo sapiens, MCF7;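 also: growth inhibition of human MCF7 cells, read out with a cell viability assay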
Description: SANGER: Inhibition of human MCF7 cell growth in a cell viability assay.

MG-63 = assay type: functional, cell-based, Homo sapiens; conditions: Homo sapiens, MG-63;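 also: growth inhibition of human MG-63 cells, read out with a cell viability assay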
Description: SANGER: Inhibition of human MG-63 cell growth in a cell viability assay.

ML-2 = assay type: functional, cell-based; conditions: Homo sapiens;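 also: growth inhibition of ML-2 cells, measured with a cell viability readout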
Description: SANGER: Inhibition of human ML-2 cell growth in a cell viability assay.

MMAC-SF = assay type: functional, cell-based, Homo sapiens; conditions: Homo sapiens, MMAC-SF;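 also: growth inhibition of human MMAC-SF cells, read out with a cell viability assay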
Description: SANGER: Inhibition of human MMAC-SF cell growth in a cell viability assay.

NCI-H1155 = assay type: functional, cell-based; conditions: Homo sapiens;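 also: cell growth inhibition measured by a viability assay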
Description: SANGER: Inhibition of human NCI-H1155 cell growth in a cell viability assay.

NCI-H1355 = assay type: functional, cell-based, Homo sapiens; conditions: Homo sapiens, NCI-H1355;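 also: growth inhibition of human NCI-H1355 cells, read out by a cell viability assay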
Description: SANGER: Inhibition of human NCI-H1355 cell growth in a cell viability assay.

NCI-H1650 = assay type: functional, cell-based, Homo sapiens; conditions: Homo sapiens, NCI-H1650;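 also: growth inhibition of human NCI-H1650 cells measured by a cell viability assay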
Description: SANGER: Inhibition of human NCI-H1650 cell growth in a cell viability assay.

NCI-H28 = assay type: functional, cell-based, Homo sapiens; conditions: Homo sapiens, NCI-H28;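 also: growth inhibition of human NCI-H28 cells, read out as cell viability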
Description: SANGER: Inhibition of human NCI-H28 cell growth in a cell viability assay.

OCUB-M = assay type: functional, cell-based, Homo sapiens; conditions: Homo sapiens, OCUB-M;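 also: growth inhibition of the cancer cell line, read out through a cell viability assay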
Description: SANGER: Inhibition of human OCUB-M cell growth in a cell viability assay.

OE19 = assay type: functional, cell-based, Homo sapiens; conditions: Homo sapiens, OE19;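 also: growth inhibition of OE19 cells, measured through a cell viability read-out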
Description: SANGER: Inhibition of human OE19 cell growth in a cell viability assay.

OVCAR-5 = assay type: functional, cell-based, Homo sapiens; conditions: Homo sapiens, OVCAR-5;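 also: growth inhibition of human OVCAR-5 cells, read out with a cell viability assay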
Description: SANGER: Inhibition of human OVCAR-5 cell growth in a cell viability assay.

PC-14 = assay type: functional, cell-based, Homo sapiens; conditions: Homo sapiens, PC-14;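 also: cell viability assay measuring inhibition of PC-14 cell growth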
Description: SANGER: Inhibition of human PC-14 cell growth in a cell viability assay.

PC-3 = assay type: functional, cell-based, Homo sapiens; conditions: Homo sapiens, PC-3;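 also: cell viability assay measuring growth inhibition of PC-3 cells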
Description: SANGER: Inhibition of human PC-3 cell growth in a cell viability assay.

RD = assay type: functional, cell-based, Homo sapiens; conditions: Homo sapiens, RD
Description: SANGER: Inhibition of human RD cell growth in a cell viability assay.

RXF 393 = assay type: functional, cell-based; conditions: Homo sapiens;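 also: growth inhibition of human RXF 393 cells, read out with a cell viability assay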
Description: SANGER: Inhibition of human RXF393 cell growth in a cell viability assay.

S-117 = assay type: functional, cell-based, Homo sapiens; conditions: Homo sapiens, S-117
Description: SANGER: Inhibition of human S-117 cell growth in a cell viability assay.

SCC-9 = assay type: functional, cell-based, Homo sapiens; conditions: Homo sapiens, SCC-9;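 also: Read-out is a cell viability assay, with values giving inhibition of cell growth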
Description: SANGER: Inhibition of human SCC-9 cell growth in a cell viability assay.

SNU-C2B = assay type: functional, cell-based, Homo sapiens; conditions: Homo sapiens, SNU-C2B;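 also: cell viability readout used to measure compound-driven suppression of SNU-C2B cell proliferation, IC50 marking half-maximal growth inhibition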
Description: SANGER: Inhibition of human SNU-C2B cell growth in a cell viability assay.

SW1463 = assay type: functional, cell-based, Homo sapiens; conditions: Homo sapiens, SW1463;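 also: growth inhibition of SW1463 cells, determined with a cell viability assay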
Description: SANGER: Inhibition of human SW1463 cell growth in a cell viability assay.

SW48 = assay type: functional, cell-based, Homo sapiens; conditions: Homo sapiens, SW48;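 also: growth inhibition of SW48 cells, read out with a cell viability assay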
Description: SANGER: Inhibition of human SW48 cell growth in a cell viability assay.

SW780 = assay type: functional, cell-based, Homo sapiens; conditions: Homo sapiens, SW780;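 also: growth inhibition of the cells, read out with a cell viability assay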
Description: SANGER: Inhibition of human SW780 cell growth in a cell viability assay.

TE-1 = assay type: functional, cell-based, Homo sapiens; conditions: Homo sapiens, TE-1;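 also: growth inhibition of the human TE-1 cell line, read out with a cell viability assay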
Description: SANGER: Inhibition of human TE-1 cell growth in a cell viability assay.

647-V = assay type: functional, cell-based, Homo sapiens; conditions: Homo sapiens, 647-V;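 also: growth inhibition of 647-V cells, read out with a cell viability assay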
Description: SANGER: Inhibition of human 647-V cell growth in a cell viability assay.

697 = assay type: functional, cell-based; conditions: Homo sapiens
Description: SANGER: Inhibition of human 697 cell growth in a cell viability assay.

A2058 = assay type: functional, cell-based; conditions: Homo sapiens;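 also: reduction of A2058 cell growth, read out with a viability assay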
Description: SANGER: Inhibition of human A2058 cell growth in a cell viability assay.

A4-Fuk = assay type: functional, cell-based; conditions: Homo sapiens;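 also: growth inhibition of A4-Fuk cells, read out by a cell viability assay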
Description: SANGER: Inhibition of human A4-Fuk cell growth in a cell viability assay.

BHY = assay type: functional, cell-based, Homo sapiens; conditions: Homo sapiens, BHY;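 also: cell growth inhibition read out by a viability assay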
Description: SANGER: Inhibition of human BHY cell growth in a cell viability assay.

Becker = assay type: functional, cell-based, Homo sapiens; conditions: Homo sapiens, Becker;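 also: growth inhibition of Becker cells, read out with a cell viability assay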
Description: SANGER: Inhibition of human Becker cell growth in a cell viability assay.

CAL-27 = assay type: functional, cell-based, Homo sapiens; conditions: Homo sapiens, CAL-27;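 also: Viability-based readout, IC50 reflecting inhibition of CAL-27 cell growth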
Description: SANGER: Inhibition of human CAL-27 cell growth in a cell viability assay.

UACC-62 = assay type: functional, cell-based, Homo sapiens; conditions: Homo sapiens, UACC-62;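 also: growth inhibition of human UACC-62 cells, read out by a cell viability assay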
Description: SANGER: Inhibition of human UACC-62 cell growth in a cell viability assay.

COLO-668 = assay type: functional, cell-based, Homo sapiens; conditions: Homo sapiens, COLO-668
Description: SANGER: Inhibition of human COLO-668 cell growth in a cell viability assay.

COLO-678 = assay type: functional, cell-based, Homo sapiens; conditions: Homo sapiens, COLO-678
Description: SANGER: Inhibition of human COLO-678 cell growth in a cell viability assay.

Cn1cncc1[C@@](N)(c1ccc(Cl)cc1)c1ccc2c(c1)c(-c1cccc(Cl)c1)cc(=O)n2C [TIPIFARNIB]
IC50 (COLO-792): 12.2 µM | IC50 (COR-L23): 13.8 µM | IC50 (Calu-6): 1.28 µM | IC50 (DEL): 1.03 µM | IC50 (DMS-79): > 16 µM | IC50 (ES6): 0.539 µM | IC50 (EW-11): > 16 µM | IC50 (HCC1937): 9.02 µM | IC50 (HD-MY-Z): > 16 µM | IC50 (HEL): 0.394 µM | IC50 (HMV-2 cell line): 0.216 µM | IC50 (Hs-578T): > 16 µM | IC50 (HuO-3N1): 4.17 µM | IC50 (K562): 4.82 µM | IC50 (KARPAS-299): > 16 µM | IC50 (KP-N-YS): > 16 µM | IC50 (LB2241-RCC): 6.16 µM | IC50 (LOX IMVI): > 16 µM | IC50 (LU-99A): 7.09 µM | IC50 (LXF-289 cell line): 4.13 µM | IC50 (MCF7): 0.166 µM | IC50 (MG-63): 1.84 µM | IC50 (ML-2): < 0.0625 µM | IC50 (MMAC-SF): 13.7 µM | IC50 (NCI-H1155): > 16 µM | IC50 (NCI-H1355): 0.974 µM | IC50 (NCI-H1650): > 16 µM | IC50 (NCI-H28): > 16 µM | IC50 (OCUB-M): 0.472 µM | IC50 (OE19): 5.75 µM | IC50 (OVCAR-5): > 16 µM | IC50 (PC-14): > 16 µM | IC50 (PC-3): 11.3 µM | IC50 (RD): 12 µM | IC50 (RXF 393): > 16 µM | IC50 (S-117): 9.59 µM | IC50 (SCC-9): > 16 µM | IC50 (SNU-C2B): 10.4 µM | IC50 (SW1463): > 16 µM | IC50 (SW48): 8.61 µM | IC50 (SW780): > 16 µM | IC50 (TE-1): 2.61 µM | IC50 (647-V): 2.3 µM | IC50 697: 1.28 µM | IC50 (A2058): 11.8 µM | IC50 (A4-Fuk): 0.0206 µM | IC50 (BHY): 1.05 µM | IC50 (Becker): 6.4 µM | IC50 (CAL-27): 3.1 µM | IC50 (UACC-62): > 16 µM | IC50 (COLO-668): 3.39 µM | IC50 (COLO-678): > 16 µM

Cc1cnc(-c2cnc(NCCNc3ccc(C#N)cn3)nc2-c2ccc(Cl)cc2Cl)[nH]1 [LADUVIGLUSIB]
IC50 (COLO-792): > 2.56 µM | IC50 (COR-L23): > 2.56 µM | IC50 (Calu-6): > 2.56 µM | IC50 (DEL): > 2.56 µM | IC50 (DMS-79): > 2.56 µM | IC50 (ES6): > 2.56 µM | IC50 (EW-11): > 2.56 µM | IC50 (HCC1937): > 2.56 µM | IC50 (HD-MY-Z): > 2.56 µM | IC50 (HEL): > 2.56 µM | IC50 (HMV-2 cell line): > 2.56 µM | IC50 (Hs-578T): > 2.56 µM | IC50 (HuO-3N1): > 2.56 µM | IC50 (K562): > 2.56 µM | IC50 (KARPAS-299): > 2.56 µM | IC50 (KP-N-YS): > 2.56 µM | IC50 (LB2241-RCC): > 2.56 µM | IC50 (LOX IMVI): 0.588 µM | IC50 (LU-99A): > 2.56 µM | IC50 (LXF-289 cell line): > 2.56 µM | IC50 (MCF7): > 2.56 µM | IC50 (MG-63): > 2.56 µM | IC50 (ML-2): > 2.56 µM | IC50 (MMAC-SF): > 2.56 µM | IC50 (NCI-H1155): > 2.56 µM | IC50 (NCI-H1355): > 2.56 µM | IC50 (NCI-H1650): > 2.56 µM | IC50 (NCI-H28): > 2.56 µM | IC50 (OCUB-M): > 2.56 µM | IC50 (OE19): > 2.56 µM | IC50 (OVCAR-5): > 2.56 µM | IC50 (PC-14): > 2.56 µM | IC50 (PC-3): > 2.56 µM | IC50 (RD): > 2.56 µM | IC50 (RXF 393): > 2.56 µM | IC50 (S-117): 0.921 µM | IC50 (SCC-9): > 2.56 µM | IC50 (SNU-C2B): > 2.56 µM | IC50 (SW1463): > 2.56 µM | IC50 (SW48): > 2.56 µM | IC50 (SW780): > 2.56 µM | IC50 (TE-1): > 2.56 µM | IC50 (647-V): > 2.56 µM | IC50 697: > 2.56 µM | IC50 (A2058): > 2.56 µM | IC50 (A4-Fuk): > 2.56 µM | IC50 (BHY): > 2.56 µM | IC50 (Becker): > 2.56 µM | IC50 (CAL-27): > 2.56 µM | IC50 (UACC-62): > 2.56 µM | IC50 (COLO-668): > 2.56 µM | IC50 (COLO-678): > 2.56 µM
